Literature values, collected in US20120010179A1, “Methods of using a thiazole derivative” (priority 2006, published 2012).

Test system: lipopolysaccharide (LPS)-induced cytokine production (TNF-α, IL-1β, IL-6)
Details: tetomilast pretreatment; human whole blood from normal volunteers in vitro; cited from earlier work

Question: With `CCOc1ccc(-c2nc(-c3cccc(C(=O)O)n3)cs2)cc1OCC` [Tetomilast, 2-(3,4-diethoxyphenyl)-4-(2-carboxy-6-pyridyl)thiazole] as the compound, how does the “LPS-induced cytokine production (TNF-α, IL-1β, IL-6)” value read?
Answer: The value was “dose-related suppression”.
